Where a name gives a salt, the structure may show the parent alone.
Each compound was assayed against T1, human αVβ6 (Homo sapiens, UniProt P06756+P18564) (assay: human αVβ6 HTRF binding assay). Conditions: alternatively SPA-based assay.
T1 construct: purchased R & D systems 3817-AV
T1 sequence (P06756 31-992 limits assumed): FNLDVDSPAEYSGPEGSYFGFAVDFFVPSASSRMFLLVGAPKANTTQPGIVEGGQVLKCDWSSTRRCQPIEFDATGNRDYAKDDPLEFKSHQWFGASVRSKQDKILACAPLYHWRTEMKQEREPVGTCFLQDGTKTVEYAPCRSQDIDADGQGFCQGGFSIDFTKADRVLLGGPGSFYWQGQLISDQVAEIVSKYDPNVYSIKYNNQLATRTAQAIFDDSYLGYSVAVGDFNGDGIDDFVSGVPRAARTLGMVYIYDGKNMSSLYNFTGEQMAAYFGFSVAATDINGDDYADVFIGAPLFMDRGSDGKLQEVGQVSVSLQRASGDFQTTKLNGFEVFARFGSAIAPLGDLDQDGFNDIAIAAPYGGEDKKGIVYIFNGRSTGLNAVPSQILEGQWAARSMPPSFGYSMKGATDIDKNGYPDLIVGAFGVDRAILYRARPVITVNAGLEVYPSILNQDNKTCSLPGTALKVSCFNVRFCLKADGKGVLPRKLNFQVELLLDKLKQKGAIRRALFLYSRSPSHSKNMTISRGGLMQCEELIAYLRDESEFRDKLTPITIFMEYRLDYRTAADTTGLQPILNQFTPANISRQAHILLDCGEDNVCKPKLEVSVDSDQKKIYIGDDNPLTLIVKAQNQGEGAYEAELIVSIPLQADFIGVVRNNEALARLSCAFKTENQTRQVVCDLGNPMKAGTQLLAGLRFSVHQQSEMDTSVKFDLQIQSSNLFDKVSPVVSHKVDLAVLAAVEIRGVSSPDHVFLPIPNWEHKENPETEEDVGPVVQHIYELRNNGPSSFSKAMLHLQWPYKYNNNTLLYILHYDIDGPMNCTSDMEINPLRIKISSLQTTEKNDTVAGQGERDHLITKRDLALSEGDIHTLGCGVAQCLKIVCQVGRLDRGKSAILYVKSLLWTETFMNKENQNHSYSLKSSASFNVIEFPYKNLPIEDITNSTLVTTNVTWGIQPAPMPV
T1 sequence (P18564 22-707 limits assumed): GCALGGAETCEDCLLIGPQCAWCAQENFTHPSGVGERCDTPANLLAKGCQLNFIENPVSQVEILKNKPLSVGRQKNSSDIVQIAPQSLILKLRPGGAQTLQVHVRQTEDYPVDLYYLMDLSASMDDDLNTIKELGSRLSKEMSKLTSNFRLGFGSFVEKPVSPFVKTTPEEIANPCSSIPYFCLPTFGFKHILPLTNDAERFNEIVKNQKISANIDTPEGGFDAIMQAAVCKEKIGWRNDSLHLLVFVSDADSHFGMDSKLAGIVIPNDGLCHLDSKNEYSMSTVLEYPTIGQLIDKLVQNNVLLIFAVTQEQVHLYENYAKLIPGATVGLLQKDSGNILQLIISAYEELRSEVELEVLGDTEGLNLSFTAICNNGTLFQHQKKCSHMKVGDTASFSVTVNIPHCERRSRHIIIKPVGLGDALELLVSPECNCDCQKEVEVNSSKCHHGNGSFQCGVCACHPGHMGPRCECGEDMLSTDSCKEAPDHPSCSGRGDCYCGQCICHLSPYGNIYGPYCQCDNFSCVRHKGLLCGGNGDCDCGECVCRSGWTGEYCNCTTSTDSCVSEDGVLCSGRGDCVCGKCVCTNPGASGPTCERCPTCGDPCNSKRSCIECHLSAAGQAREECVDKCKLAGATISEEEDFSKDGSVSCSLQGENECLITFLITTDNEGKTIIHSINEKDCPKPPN
Description: All binding assays used the HTRF (homogeneous time resolved fluorescence) technology from Cisbio International, therefore all assays are described as HTRF binding assays. The assay results for the Examples are listed above together with the characterization data. The HTRF binding assays are established for the following integrins: human αVβ6, human αVβ1, human αVβ3, human αVβ5, and human αVβ8. All assays used the following assay buffer: 20 mM Tris, pH 7.4, 1 mM MgCl2, 1 mM MnCl2, 0.01% Tween 20, and 0.01% BSA. Alternatively, a SPA-based assay was used for evaluation of receptor binding.
The following describes the components and a representative procedure for the human αVβ6 HTRF binding assay: Recombinant human αVβ6 Integrin (R & D systems, 3817-AV) was biotinylated. Biotinylated human αVβ6 Integrin was added to assay vessel at a final concentration of 1.25 nM. FITC-conjugated fibronectin (Cytoskeleton, FNR02) was then added at the final concentration of 5 nM. The mixture was centrifuged at 600 rpm for three minutes using Thermo Fisher Heraeus Multifuge X3 centrifuge and then incubated at RT for an hour. Streptavidin Terbium (Cisbio international 610STLB) was then added at the final concentration of 0.625 nM. The resulting mixture was centrifuged at 600 rpm for three minutes using Thermo Fisher Heraeus Multifuge X3 centrifuge and then incubated at room temperature overnight in dark before reading HTRF signals.
The SPA-based assay was carried out according to the protocol and procedures similar to the ones described in the following reference with appropriate modifications to agents and ligands which are readily understood by one skilled in the art: Pachter J A, Zhang R, Mayer-Ezell R., “Scintillation proximity assay to measure binding of soluble fibronectin to antibody-captured αVβ1 integrin” Anal Biochem. 1995 Sep. 1; 230(1):101-7.
O=C(O)C[C@H](NC1CC2(C1)CN(CCCc1ccc3c(n1)NCCC3)C2)c1cc(Cl)cc(Cl)c1 [Example 79] showed an IC50 of 3.2 nM. Compound O=C(O)C[C@H](NC(=O)C1(F)CN(CCc2ccc3c(n2)NCCC3)C1)c1ccc2c(c1)OCC2 [Example 81] has an IC50 of 0.93 nM. Work on O=C(O)C[C@H](NC(=O)[C@H]1C[C@@H](CCc2ccc3c(n2)NCCC3)C1)c1cncnc1 [Example 91] yielded an IC50 of 2.9 nM. O=C(O)C[C@H](NC(=O)[C@H]1C[C@H](CCc2ccc3c(n2)NCCC3)C1)c1cc(Cl)cc(Cl)c1 [Example 92] was tested, and the IC50 was 1.2 nM. With COc1ccc([C@H](CC(=O)O)C2(F)CN(C(=O)CCCc3ccc4c(n3)NCCC4)C2)cc1F [Example 94] the IC50 was 10 nM. COc1ccc([C@@H](CC(=O)O)C2(F)CN(C(=O)CCCc3ccc4c(n3)NCCC4)C2)cc1F [Example 95] was tested, and the IC50 was 230 nM. CN(C1CN(CCCc2ccc3c(n2)NCCC3)C1)[C@@H](CC(=O)O)c1cc(Cl)cc(Cl)c1 [Example 98] was tested, and the IC50 was 0.53 nM. COc1ccc(C(CC(=O)O)C2CC3(C2)CN(CCCc2ccc4c(n2)NCCC4)C3)cn1 (stereo not shown) [Example 99] gave an IC50 of 5.9 nM. COc1ccc(C(CC(=O)O)C2CC3(C2)CN(CCc2ccc4c(n2)NCCC4)C3)cn1 (stereo not shown) [Example 100] gave an IC50 of 2.4 nM. In the case of O=C(O)CC(c1cnc2ccccc2c1)C1CC2(C1)CN(CCc1ccc3c(n1)NCCC3)C2 (stereo not shown) [Example 101], the IC50 is reported as 4.7 nM. With O=C(O)C[C@@H](c1ccc2c(c1)OCC2)N1CC(CCCCc2ccc3c(n2)NCCC3)C1=O (stereo partly shown) [Example 105] the IC50 was 3.9 nM. For O=C(O)C[C@@H](c1cnc2ccccc2c1)N1CC(CCCCc2ccc3c(n2)NCCC3)C1=O (stereo partly shown) [Example 107], the IC50 was 2.7 nM. With O=C(O)C[C@@H](c1cc(Cl)cc(Cl)c1)N1CC(CCCCc2ccc3c(n2)NCCC3)C1=O (stereo partly shown) [Example 108] the IC50 was 0.72 nM. In the case of O=C(O)C[C@@H](c1cc(Cl)cc(Cl)c1)N1CC(CCCCc2ccc3c(n2)NCCC3)C1=O (stereo partly shown) [Example 109], the IC50 is reported as 0.89 nM. For O=C(O)C[C@@H](c1ccc2c(c1)CCO2)N1CC(CCCCc2ccc3c(n2)NCCC3)C1=O (stereo partly shown) [Example 111], the IC50 was 6 nM. Work on O=C(O)C[C@@H](c1ccc(F)c(F)c1)N1CC(CCCCc2ccc3c(n2)NCCC3)C1=O (stereo partly shown) [Example 112] yielded an IC50 of 3.9 nM. Compound O=C(O)C[C@@H](c1ccc(F)c(F)c1)N1CC(CCCCc2ccc3c(n2)NCCC3)C1=O (stereo partly shown) [Example 113] has an IC50 of 12 nM. COc1ccc(C(CC(=O)O)C2CC3(C2)CN(CCc2ccc4c(n2)NCCC4)C3)cc1F (stereo not shown) [Example 116] was tested, and the IC50 was 2.4 nM. Work on O=C(O)CC(c1cnc2ccccc2c1)C1CC2(C1)CN(CCCc1ccc3c(n1)NCCC3)C2 (stereo not shown) [Example 117] yielded an IC50 of 2.7 nM. Work on O=C(O)CC(c1cnc2ccccc2c1)C1(F)CN(CCCCc2ccc3c(n2)NCCC3)C1 (stereo not shown) [Example 118] yielded an IC50 of 5.9 nM. Work on O=C(O)CCN(C(=O)OCc1ccccc1)C1CN(CCCc2ccc3c(n2)NCCC3)C1 [Example 119] yielded an IC50 of 7.4 nM. Cc1ncc([C@H](CC(=O)O)NC(=O)N2CC(CCc3ccc4c(n3)NCCC4)C2)cn1 [Example 120] was tested, and the IC50 was 5.9 nM. With O=C(O)C[C@H](NC(=O)N1CC(CCc2ccc3c(n2)NCCC3)C1)c1cncnc1 [Example 121] the IC50 was 6.2 nM. In the case of COc1ccc(C(CC(=O)O)C2(F)CN(CCCCc3ccc4c(n3)NCCC4)C2)cn1 (stereo not shown) [Example 122], the IC50 is reported as 28 nM. COc1ncc([C@H](CC(=O)O)NC(=O)N2CC(CCc3ccc4c(n3)NCCC4)C2)cn1 [Example 123] showed an IC50 of 4.3 nM. In the case of O=C(O)CCC1CC2(C1)CC(CCc1ccc3c(n1)NCCC3)C2 (stereo not shown) [Example 124], the IC50 is reported as 93 nM. With COc1ccc(C(CC(=O)O)C2CC(NCCCc3ccc4c(n3)NCCC4)C2)cn1 (stereo not shown) [Example 125] the IC50 was 5.7 nM. COc1ccc(C(CC(=O)O)C2CC(NCCCc3ccc4c(n3)NCCC4)C2)cc1F (stereo not shown) [Example 126] showed an IC50 of 4.18 nM. Work on Cc1ncc(C(CC(=O)O)N2CC(COCCc3ccc4c(n3)NCCC4)C2)cn1 (stereo not shown) [Example 127, 3-(2-methylpyrimidin-5-yl)-3-(3-((2-(5,6,7,8-tetrahydro-1,8-naphthyridin-2-yl)ethoxy)methyl)azetidin-1-yl)propanoic acid, 2 TFA] yielded an IC50 of 7.9 nM. Work on Cc1ncc(C(CC(=O)O)N2CC(OCCCc3ccc4c(n3)NCCC4)C2)cn1 (stereo not shown) [Example 130, 3-(2-methylpyrimidin-5-yl)-3-(3-(3-(5,6,7,8-tetrahydro-1,8-naphthyridin-2-yl)propoxy)azetidin-1-yl)propanoic acid, 2 TFA] yielded an IC50 of 8.2 nM. Work on O=C(O)CC(c1cnc2ccccc2c1)N1CC(OCCCc2ccc3c(n2)NCCC3)C1 (stereo not shown) [Example 133] yielded an IC50 of 5.6 nM. COc1ccc(C(CC(=O)O)N2CC(OCCCc3ccc4c(n3)NCCC4)C2)cn1 (stereo not shown) [Example 134, 3-(6-methoxypyridin-3-yl)-3-(3-(3-(5,6,7,8-tetrahydro-1,8-naphthyridin-2-yl)propoxy)azetidin-1-yl)propanoic acid, 2 TFA] was tested, and the IC50 was 4.6 nM. COc1ccc(C(CC(=O)O)N2CC(OCCCc3ccc4c(n3)NCCC4)C2)cc1F (stereo not shown) [Example 135, 3-(3-fluoro-4-methoxyphenyl)-3-(3-(3-(5,6,7,8-tetrahydro-1,8-naphthyridin-2-yl)propoxy)azetidin-1-yl)propanoic acid, 2 TFA] gave an IC50 of 4.9 nM. Compound COc1ccc([C@@H](CC(=O)O)N2CC(OCCCc3ccc4c(n3)NCCC4)C2)cc1F [Example 137, (R)-3-(3-fluoro-4-methoxyphenyl)-3-(3-(3-(5,6,7,8-tetrahydro-1,8-naphthyridin-2-yl)propoxy)azetidin-1-yl)propanoic acid] has an IC50 of 160 nM. For COc1ccc(C(CC(=O)O)C2CC(CCCCc3ccc4c(n3)NCCC4)C2)cn1 (stereo not shown) [Example 138, 3-(6-Methoxypyridin-3-yl)-3-(3-(4-(5,6,7,8-tetrahydro-1,8-naphthyridin-2-yl)butyl)cyclobutyl)propanoic acid], the IC50 was 3.2 nM. Compound COc1ccc(C(CC(=O)O)C2CC3(CC(CCc4ccc5c(n4)NCCC5)C3)C2)cn1 (stereo not shown) [Example 141] has an IC50 of 2.9 nM. For O=C(O)CC(c1cnc2ccccc2c1)C1CN(CCCCc2ccc3c(n2)NCCC3)C1 (stereo not shown) [Example 142], the IC50 was 9.9 nM. Work on COc1ccc(C(CC(=O)O)C2CN(CCCCc3ccc4c(n3)NCCC4)C2)cc1F (stereo not shown) [Example 143] yielded an IC50 of 8.5 nM. O=C(O)CC(c1ccc(N2CCOCC2)nc1)C1CC2(CC(CCc3ccc4c(n3)NCCC4)C2)C1 (stereo not shown) [Example 144] was tested, and the IC50 was 4.9 nM. Work on O=C(O)CC(c1cccc(N2CCOCC2)c1)C1CC2(CC(CCc3ccc4c(n3)NCCC4)C2)C1 (stereo not shown) [Example 145] yielded an IC50 of 2.7 nM. For O=C(O)CC(c1cccc(N2CCOCC2)c1)C1CC(CCCCc2ccc3c(n2)NCCC3)C1 (stereo not shown) [Example 146, 3-(3-Morpholinophenyl)-3-(3-(4-(5,6,7,8-tetrahydro-1,8-naphthyridin-2-yl)butyl)cyclobutyl)propanoic acid], the IC50 was 14 nM. O=C(O)CC(c1ccc2nccnc2c1)C1CC(NCCCc2ccc3c(n2)NCCC3)C1 (stereo not shown) [Example 148] showed an IC50 of 6.5 nM. Compound CC(=O)N(CCCc1ccc2c(n1)NCCC2)C1CC(C(CC(=O)O)c2cccc(N3CCOCC3)c2)C1 (stereo not shown) [Example 149, 3-(3-Morpholinophenyl)-3-(3-(N-(3-(5,6,7,8-tetrahydro-1,8-naphthyridin-2-yl)propyl)acetamido)cyclobutyl)propanoic acid] has an IC50 of 4.6 nM. With CC(=O)N(CCCc1ccc2c(n1)NCCC2)C1CC(C(CC(=O)O)c2ccc3nccnc3c2)C1 (stereo not shown) [Example 150] the IC50 was 6.7 nM. COc1ccc([C@H](CC(=O)O)N2CC(CCCCc3ccc4c(n3)NCCC4)C2)cn1 [Example 151] gave an IC50 of 3.6 nM. O=C(O)C[C@@H](c1cc(F)cc(F)c1)N1CC(CCCCc2ccc3c(n2)NCCC3)C1 [Example 152] showed an IC50 of 1.4 nM.
